PubChem BioAssay AID1259411 (Chemical Carcinogenesis Research Information System (CCRIS), 2018)
The source made the active and inactive calls. How the calls were made is not given here.

System: rodent carcinogenicity bioassays, tumor incidence
Experiment: CCRIS carcinogenicity studies
Summary of the method: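 NCI-built, expert-reviewed records of carcinogenicity and related test outcomes (mutagenicity, tumor promotion/inhibition) compiled from published and report sources, historical span 1985-2011, not updated.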

Measured: carcinogen call

CCC(CC)[N+](=O)[O-]
active: Species: RAT, Strain/Sex: F344/MALE, Route: GAVAGE, Dose: 0, 2 MMOL/KG BW 1/WK FOR 12 WK THEN 1 MMOL/KG FOR 38 WK (STUDY DURATION: 83 WK), Tumor Site: Type of Lesion: LIVER: CARCINOMA active; positive

Cc1cc(-c2ccc(N/N=C3/C(=O)c4c(N)cc(S(=O)(=O)O)cc4C=C3S(=O)(=O)O)c(C)c2)ccc1N/N=C1/C(=O)c2c(N)cc(S(=O)(=O)O)cc2C=C1S(=O)(=O)O
active: Species: RAT, Route: INTRAPERITONEAL, SUBCUTANEOUS, Tumor Site: Type of Lesion: LIVER, INJECTION SITE active; positive

Cc1cccc2c(C)c3c(ccc4ccccc43)c(C)c12
active: Species: MOUSE, Strain/Sex: C57BL/MALE,FEMALE, Route: DERMAL, Tumor Site: Type of Lesion: INTEGUMENTARY SYSTEM (SKIN): PAPILLOMA, EPITHELIOMA, SARCOMA active; positive | Species: MOUSE, Strain/Sex: DBA/MALE,FEMALE, Route: DERMAL, Tumor Site: Type of Lesion: INTEGUMENTARY SYSTEM (SKIN): PAPILLOMA, EPITHELIOMA, SARCOMA active; positive | Species: MOUSE, Strain/Sex: DBF1/MALE,FEMALE, Route: DERMAL, Tumor Site: Type of Lesion: INTEGUMENTARY SYSTEM (SKIN): PAPILLOMA, EPITHELIOMA, SARCOMA active; positive | Species: RAT, Strain/Sex: LONG-EVANS/FEMALE, Route: INTRAVENOUS, Dose: 35 MG/KG, 0.5% IN DMSO DILUTED WITH COTTONSEED OIL-WATER EMULSION, 1/2 WK OR 1/10 D FOR 3-5 DOSES, Tumor Site: Type of Lesion: HEMATOPOIETIC SYSTEM (LEUKEMIA) active; positive | Species: RAT, Strain/Sex: LONG-EVANS/MALE, Route: INTRAMUSCULAR, Dose: 2.5 MG IN 0.5 ML SESAME OIL ONCE, Tumor Site: Type of Lesion: INJECTION SITE: SARCOMA active; positive | Species: RAT, Strain/Sex: LONG-EVANS/MALE, Route: INTRAVENOUS, Dose: 35 MG/KG, 0.5% IN DMSO DILUTED WITH COTTONSEED OIL-WATER EMULSION, 1/2 WK FOR 4 DOSES, Tumor Site: Type of Lesion: HEMATOPOIETIC SYSTEM (LEUKEMIA) active; positive

NC(=S)NNC(N)=S
equivocal: Species: MOUSE, Strain/Sex: B6C3F1/FEMALE, Route: ORAL, Dose: 0, 1.0, 2.0% OF DIET FOR 78 WK (STUDY DURATION: 94 WK), Dose: 0, 1.0, 2.0% OF DIET FOR 78 WK (STUDY DURATION: 94 WK), Tumor Site: Type of Lesion: LIVER: HEPATOCELLULAR CARCINOMA
inactive: Species: MOUSE, Strain/Sex: B6C3F1/MALE, Route: ORAL, Dose: 0, 1.0, 2.0% OF DIET FOR 78 WK (STUDY DURATION: 94 WK), Dose: 0, 1.0, 2.0% OF DIET FOR 78 WK (STUDY DURATION: 94 WK) inactive; negative | Species: RAT, Strain/Sex: F344/FEMALE, Route: ORAL, Dose: 0, 0.6, 1.2% OF DIET FOR 78 WK (STUDY DURATION: 109 WK), Dose: 0, 0.6, 1.2% OF DIET FOR 78 WK (STUDY DURATION: 109 WK) inactive; negative | Species: RAT, Strain/Sex: F344/MALE, Route: ORAL, Dose: 0, 0.6, 1.2% OF DIET OR 78 WK (STUDY DURATION: 109 WK), Dose: 0, 0.6, 1.2% OF DIET OR 78 WK (STUDY DURATION: 109 WK) inactive; negative

CCN(CC)CCNc1ccc(CO)c2sc3ccccc3c(=O)c12
active: Species: MOUSE, Route: INTRAMUSCULAR, Tumor Site: Type of Lesion: LIVER active; positive

O=c1[nH]c2ccccc2c2ccccc12
inactive: Species: MOUSE, Strain/Sex: CD-1/FEMALE, Route: INTRAPERITONEAL, Dose: 0, 5, 10 AND 20 µL OF A 0.05 MOLAR SOLUTION ON DAYS 1, 8 AND 15 OF LIFE RESPECTIVELY (TOTAL DOSE: 1.75 UMOL) (STUDY DURA, Dose: 0, 5, 10 AND 20 µL OF A 0.05 MOLAR SOLUTION ON DAYS 1, 8 AND 15 OF LIFE RESPECTIVELY (TOTAL DOSE: 1.75 UMOL) (STUDY DURA inactive; negative | Species: MOUSE, Strain/Sex: CD-1/MALE, Route: INTRAPERITONEAL, Dose: 0, 5, 10 AND 20 µL OF A 0.05 MOLAR SOLUTION ON DAYS 1, 8 AND 15 OF LIFE RESPECTIVELY (TOTAL DOSE: 1.75 UMOL) (STUDY DURA, Dose: 0, 5, 10 AND 20 µL OF A 0.05 MOLAR SOLUTION ON DAYS 1, 8 AND 15 OF LIFE RESPECTIVELY (TOTAL DOSE: 1.75 UMOL) (STUDY DURA inactive; negative

C[C@]12CC[C@@H]3c4ccc(O)cc4CC[C@H]3[C@@H]1CCC2=O
active: Species: HAMSTER, Route: SUBCUTANEOUS, SUBCUTANEOUS IMPLANT, Tumor Site: Type of Lesion: KIDNEY active; positive | Species: HAMSTER, Strain/Sex: SYRIAN/MALE, Route: SUBCUTANEOUS IMPLANT, Dose: 0, 20 MG PELLET, SINGLE DOSE, Tumor Site: Type of Lesion: KIDNEY active; positive | Species: HAMSTER, Strain/Sex: SYRIAN/MALE, Route: SUBCUTANEOUS IMPLANT, Dose: 0, 20 MG IN PELLETS IMPLANTED EVERY 2.5 MO FOR 9 MO (STUDY DURATION: 9 MO), Tumor Site: Type of Lesion: KIDNEY: TUMOR active; positive | Species: HAMSTER, Strain/Sex: SYRIAN/MALE, Route: SUBCUTANEOUS, Tumor Site: Type of Lesion: KIDNEY, PITUITARY GLAND: ADENOMA active; positive | Species: HUMAN, Tumor Site: Type of Lesion: UTERUS (ENDOMETRIUM) active; positive | Species: MOUSE, Route: ORAL, SUBCUTANEOUS, DERMAL, SUBCUTANEOUS IMPLANT, Tumor Site: Type of Lesion: MAMMARY GLAND active; positive | Species: MOUSE, Strain/Sex: C3H, C3HE(MTV-)/MALE, Route: ORAL, Dose: 125, 2000 UG/L IN DRINKING WATER, Tumor Site: Type of Lesion: MAMMARY GLAND active; positive | Species: MOUSE, Strain/Sex: C3R3(MTV+)/MALE, Route: DIET, Dose: 0, 0.06, 0.6, 6 UG/D, Tumor Site: Type of Lesion: MAMMARY GLAND active; positive | Species: MOUSE, Strain/Sex: GRS/AFIB(MTV+)/FEMALE, Route: ORAL, Dose: 0, 0.5 UG/ML FOR 14-25 WK IN DRINKING WATER, Tumor Site: Type of Lesion: UTERUS active; positive | Species: RAT, Route: SUBCUTANEOUS, SUBCUTANEOUS IMPLANT, Tumor Site: Type of Lesion: ADRENAL GLAND, KIDNEY, MAMMARY GLAND, PITUITARY GLAND, URINARY BLADDER, Tumor Site: Type of Lesion: ADRENAL GLAND, KIDNEY, MAMMARY GLAND, PITUITARY GLAND, URINARY BLADDER active; positive | Species: RAT, Strain/Sex: AUGUST/MALE,FEMALE, Route: SUBCUTANEOUS IMPLANT, Dose: 8-12 MG PELLET, SINGLE DOSE, Tumor Site: Type of Lesion: MAMMARY GLAND active; positive | Species: RAT, Strain/Sex: AXC/MALE,FEMALE, Route: SUBCUTANEOUS IMPLANT, Dose: 8-12 MG PELLET, SINGLE DOSE, Tumor Site: Type of Lesion: MAMMARY GLAND active; positive | Species: RAT, Strain/Sex: COPENHAGEN/MALE,FEMALE, Route: SUBCUTANEOUS IMPLANT, Dose: 8-12 MG PELLET, SINGLE DOSE, Tumor Site: Type of Lesion: URINARY BLADDER active; positive | Species: RAT, Strain/Sex: F344/MALE,FEMALE, Route: SUBCUTANEOUS IMPLANT, Dose: 8-12 MG PELLET, SINGLE DOSE, Tumor Site: Type of Lesion: MAMMARY GLAND active; positive

O=[N+]([O-])c1ccc2c3c(cccc13)-c1ccccc1-2
inactive: Species: MOUSE, Strain/Sex: B6C3F1/MALE, Route: INTRAPERITONEAL, Dose: 0, 400 NMOL IN 35 µL DMSO ON DAYS 1 (1/7 TOTAL DOSE), 8 (2/7 TOTAL DOSE), AND 15 (4/7 TOTAL DOSE) AFTER BIRTH (STUDY DUR inactive; negative | Species: RAT, Strain/Sex: F344/MALE, Route: LUNG IMPLANT, Dose: 0, 1000 UG SUSPENDED IN BEESWAX/TRICAPRYLIN INTO LOWER LEFT LUNG ONCE (STUDY DURATION: 100 WK) inactive; negative | Species: RAT, Strain/Sex: F344/MALE, Route: PULMONARY IMPLANT, Dose: 0, 1000 UG IN 50 µL BEESWAX/TRICAPRYLIN IMPLANTED FOR UP TO 100 WK (STUDY DURATION: 100 WK) inactive; negative
active: Species: MOUSE, Strain/Sex: ICR/FEMALE, Route: INTRAPERITONEAL, Dose: 0, 63 UG TOTAL DOSE (9 UG/5 µL, 18 UG/10 µL, 36 UG/20 µL DMSO ON DAYS 1, 8 AND 15), 315 UG TOTAL DOSE (45 UG/5 µL, 90 UG, Dose: 0, 63 UG TOTAL DOSE (9 UG/5 µL, 18 UG/10 µL, 36 UG/20 µL DMSO ON DAYS 1, 8 AND 15), 315 UG TOTAL DOSE (45 UG/5 µL, 90 UG, Tumor Site: Type of Lesion: LUNG: ADENOMA active; positive | Species: MOUSE, Strain/Sex: ICR/MALE, Route: INTRAPERITONEAL, Dose: 0, 63 UG TOTAL DOSE (9 UG/5 µL, 18 UG/10 µL, 36 UG/20 µL DMSO ON DAYS 1, 8 AND 15), 315 UG TOTAL DOSE (45 UG/5 µL, 90 UG, Dose: 0, 63 UG TOTAL DOSE (9 UG/5 µL, 18 UG/10 µL, 36 UG/20 µL DMSO ON DAYS 1, 8 AND 15), 315 UG TOTAL DOSE (45 UG/5 µL, 90 UG, Tumor Site: Type of Lesion: LUNG: ADENOMA active; positive | Species: RAT, Strain/Sex: F344/DUCRJ FISCHER/MALE, Route: SUBCUTANEOUS, Dose: 2 MG TWICE WEEKLY FOR A TOTAL OF 15 INJECTIONS (STUDY DURATION: 52 WK), Tumor Site: Type of Lesion: INTEGUMENTARY SYSTEM: FIBROUS HISTIOCYTOMAS active; positive
